Assay results taken from a melting point compilation (Tetko et al.; mined from patent text by program, amines drawn as free bases though some values may be those of a salt).

Structure (SMILES) | melting point
NC(=O)CNC(=O)c1cccc(-c2cccc3oc(Cc4ccc(F)c(Cl)c4)cc23)c1 | 155 to 156 °C
CC(C)(NC(=O)CCNC(=O)OCc1ccccc1)c1ccccc1 | 96 to 97 °C
COc1ccc(C2Sc3ccccc3N(CC(N)=O)C(=O)C2NC(=O)c2ccc3ccccc3c2)cc1 (centres undefined) | 243 to 245 °C
CON=C(C)c1cccc(S(N)(=O)=O)c1 | 165 to 166 °C
Cc1nn(-c2ccc3cc(-c4ccc(C(=O)Cl)cc4)oc3c2)nc1-c1ccccc1 | 275 °C
CS(=O)(=O)Cc1cccc(C(F)(F)F)c1N | 96 to 98 °C
CCN1CCN([C@@H]2c3cc(C#N)ccc3OC(C)(C)[C@H]2O)C1=NC#N (relative stereo) | 231 to 233 °C
Nc1cc(C(=O)Nc2ccccc2)ccc1OC(F)(F)F | 160 to 162 °C
Nc1cccc(-c2ccc3nnn(Cc4ccc5ncccc5c4)c3n2)c1 | 187 to 189 °C
C[Si](C)(C)C#Cc1ccc2c(c1)NC(=O)CO2 | 142 °C
CNS(=O)(=O)c1sc2ccccc2c1CC(=O)O | 190 to 192 °C
NC(=O)OCCn1cc(C(N)=O)c([N+](=O)[O-])n1 | 191 to 194 °C
O=C1NCC(C(F)(F)F)C(=O)N1c1ccccc1 (centres undefined) | 215 to 216 °C
Cc1cccc(C)c1-n1cnc(N)nc1=O | 248 to 250 °C
c1ccc(COc2cccc3nc[nH]c23)cc1 | 165 to 167 °C
COc1ccc2ccc3c(c2c1)C=C(C#N)CO3 | 134 °C
CC(Oc1ncn(-c2ccccc2Cl)n1)C(=O)O (centres undefined) | 104 to 106 °C
NCCCN1CCOC(c2ccccc2)(c2ccccc2)CC1 | 68 to 70 °C
CC(=O)CNC(=O)Nc1cc(-c2c(-c3ccc(F)c(C)c3)nc3cccnn23)ccn1 | 208 to 209 °C
O[C@H](CCl)COc1ccc(OCc2ccccc2)cc1 | 78 to 80 °C
CCCCc1ncc(/C=C(\Cc2cccs2)C(=O)O)n1Cc1ccc(C=CC(=O)O)cc1 | 199 to 203 °C
OCc1c(C(F)(F)F)nn2ccc3c(c12)CCO3 | 151 to 153 °C
O=C1Nc2cccnc2N(C(=O)NCCN2CCC(CN3CCCCC3)C2)c2ccccc21 (centres undefined) | 168 to 169 °C
CCOC(=O)C1Cc2ccc(C(=O)c3ccc(NC(C)=O)c(Cl)c3)cc2C1 (centres undefined) | 126 to 127 °C
O=Cc1cc(Cl)ccc1OC/C=C/CCl | 62 to 63 °C

Structure (SMILES) | melting point
Cc1ccccc1-c1cnc2c(C(F)(F)F)cccc2c1-c1cccc(NC(=O)Nc2ccccc2)c1 | 192 to 195 °C
COc1ccc(-n2ncc(C(=O)O)c2Cl)cc1 | 241 to 242 °C
CC(COc1ccccc1C(=O)C(=O)c1ccccc1OCC(C)CN(C)C)CN(C)C (centres undefined) | 69 to 70 °C
COc1ccc2c(c1)CCC1C2CCC2(C)C1CCC2N(C)CCCO (centres undefined) | 122 to 124 °C
CCOC(=O)c1cn(C2CC2)c2nc3cc(Cl)c(F)cc3cc2c1=O | 256 °C
Cc1cccc(NC(=O)N(C)Cc2cccc3c2CN(C2CCC(=O)NC2=O)C3=O)c1 (centres undefined) | 208 to 210 °C
CC(C)(C)C(NC(=O)c1ccc(Cl)cc1)NC(=NC#N)Nc1cccc(F)c1 (centres undefined) | 167 to 170 °C
Cc1cccc(C)c1C=Nc1cc(Cl)c(N=CN(C)C)c(Cl)c1 | 123 to 124 °C
COC(=O)c1c(OC(=O)N(c2ccccc2)c2ccccc2)cc(C(F)(F)F)nc1C(F)(F)F | 114 to 116 °C
N#Cc1ccc(-c2cnc(F)c(OC3SCC(O)C(O)C3O)c2)cc1 (centres undefined) | 220 °C
N#CC(c1ccccc1)(c1ccccc1)c1ccc([N+](=O)[O-])cn1 | 94 to 99 °C
CCCc1c(OCC(=O)NCCCCc2cccnc2)ccc(C(C)=O)c1O | 95 to 97 °C
O=C1c2ccccc2C(=O)N1CCN1CCCC1c1cccc(O)c1 (centres undefined) | 172 to 175 °C
CN(C)C1CCCN(C(=O)c2ccc(N)cc2)c2ccccc21 (centres undefined) | 120 to 122 °C
N#CCc1ccc(OCc2ccccc2)c(OCc2ccccc2)c1CCc1cccc(OCc2ccccc2)c1 | 90 °C
CCc1nc2cc(C(F)(F)F)c(Cl)cc2n1-c1ccc(C[C@H](C)OC(=O)NS(=O)(=O)c2ccc(C)cc2)cc1 | 200 °C
Cc1nnc2n1-c1ccc(C#CCn3ncc4ccccc43)cc1C(c1ccccc1F)=NC2 | 148 to 151 °C
COC(=O)c1ccc(-n2cc(-c3ccc4c(c3)C(C)(C)CCC4(C)C)cn2)cc1 | 229 to 232 °C
Cc1ccc(S(=O)(=O)Oc2ccc(C=O)cc2OS(=O)(=O)c2ccc(C)cc2)cc1 | 95 to 97 °C
O=C1C(CCO)Oc2cc([N+](=O)[O-])ccc2N1Cc1ccccc1[N+](=O)[O-] (centres undefined) | 139 to 143 °C
CC(C)c1cc(Cc2cnc(N)nc2N)cc(C(C)C)c1N | 177 to 180 °C
CN1CC=C(c2c[nH]c3ccc(NC(=N)c4cccs4)cc23)C(F)C1 (centres undefined) | 127 to 129 °C
COc1ccc(-c2nn(C(C)C)c(=O)c3ccsc23)cc1 | 124 to 126 °C
Cc1oc(-c2ccc(Cl)cc2)nc1COc1cccc(CN(O)C(N)=O)c1 | 125 to 127 °C
